Here are results for 2 compounds from patent publication EP4703363A1, “SALT FORM AND CRYSTAL FORM OF THIENOPYRIMIDINE COMPOUND, AND PREPARATION METHOD THEREFOR AND USE THEREOF” (Shandong Luye Pharmaceutical Co., Ltd., priority 2023, dated 2024).

Data set [1] in a line: In vivo pharmacokinetics in SD rats. Particulars: for F: absolute bioavailability; for AUC(0-t) / C0 / MRT last / half-life / Cmax / Tmax: male, rat, plasma. On the procedure: (§1) Rats: SD rats, male, 200-250 g
(§2) Instruments: water purification instrument, Millipore; electronic balance, METTLER TOLEDO; highspeed benchtop centrifuge, Thermo; water bath thermostatic oscillator, Shanghai Yiheng Technical Co., Ltd.; vortex oscillator, Thermo; LC-MS/MS, AB SCIEX.
(§3) Method: Solutions of all compounds were prepared using DMSO and 20% solutol. In the pharmacokinetic experiment, the administration dose for the intravenous group (i.v) was 1 mg/kg, and the administration dose for the intragastric group (i.g) was 12 mg/kg; each group contained 3 rats. Blood was collected from the orbit of the rats before administration (0 h) and at set time points after administration. In the tissue distribution experimental group, the rats were intragastrically dosed at 12 mg/kg. […] The […] was placed in a heparinized EP tube and centrifuged at 13,500 rpm for 10 min to isolate the plasma. The pituitary was homogenized with water in a certain ratio. The plasma and pituitary homogenates were pre-treated and then analyzed by LC-MS/MS to determine the concentrations of the test substances in the plasma and the pituitary. The plasma drug concentration data were processed in a non-compartmental model using WinNonlin™ Version 6.3 (Pharsight, Mountain View, CA) pharmacokinetic software. […] Table 16-1. Pharmacokinetic parameters in SD rats after intravenous administration

Data set [2] in a line: Pituitary tissue distribution in SD rats. The data set is classed as in vivo. The conditions noted are these: intragastric 12 mg/kg; for Kp at 1 h / Kp at 4 h / Kp at 12 h: male, rat, pituitary/plasma, oral. The method, then: as §1, §2, §3
Data set [3] can be described thus: Caco-2 monolayer two-way permeability and efflux. The data set is classed as in vitro ADME. Particulars: human. On the procedure:
Instruments: water purification instrument, ELGA LabWate; biosafety cabinet, NUAIRE; thermostatic CO2 incubator, Thermo; microplate reader, PerkinElmer; LC-MS/MS, AB SCIEX.
Method: A Caco-2 monolayer cell model was used to determine the two-way permeability of the test substance and evaluate whether the test substance was transported via efflux by a transporter. In the experiment, Caco-2 cells were seeded into a 96-well cell culture plate and cultured for 28 consecutive days before a transport assay. The test substance was administered on two sides. After 120 min of incubation, samples of apical end A, basal end B, and the cell lysate were collected, and the content of the test substance in the samples was quantitatively determined using a liquid chromatography-tandem mass spectrometry (LC/MS/MS) method. The apparent permeability coefficients (Papp) in the direction from the apical end to the basal end (A-B) and in the direction from the basal end to the apical end (B-A) and the efflux ratio were calculated based on the concentration of the test substance. Table 15. The permeability of the compound of formula I in Caco-2 cells
(In general: Caco-2 monolayers are a common model of the intestinal barrier.)

For data set [4], the target named is T1, human GnRHR (Homo sapiens, UniProt P30968).
T1 sequence (P30968 1-328): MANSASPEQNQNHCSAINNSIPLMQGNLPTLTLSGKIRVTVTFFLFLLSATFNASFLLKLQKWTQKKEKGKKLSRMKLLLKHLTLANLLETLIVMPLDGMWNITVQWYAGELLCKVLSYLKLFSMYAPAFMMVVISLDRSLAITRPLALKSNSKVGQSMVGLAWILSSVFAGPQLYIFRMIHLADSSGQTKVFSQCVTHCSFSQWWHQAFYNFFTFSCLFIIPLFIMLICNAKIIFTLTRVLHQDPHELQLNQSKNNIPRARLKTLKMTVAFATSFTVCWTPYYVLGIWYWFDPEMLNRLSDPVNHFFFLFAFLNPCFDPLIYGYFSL
Kind of data set: In vitro binding screening ([125I]-[D-Trp6]-LH-RH displacement, Chem-1 cell membrane). The arrangement: host or cells: Chem-1 cells (membrane preparation). On the procedure:
[D-Trp6]-LH-RH, PerkinElmer; [D-Trp6]-LH-RH, Abcam.
Equipment: MicroBeta2 LumiJET system, PerkinElmer.
1 µM [D-Trp6]-LH-RH was used in the non-specific binding assay. The cell membrane was collected by filtration under vacuum and washed before liquid scintillation. The binding IC50 and IC90 of the compound were calculated using Prism. Table 13. The in vitro binding activity of the compound of the present disclosure to human GnRHR

Data set [5] concerns the target T1, human GnRHR. Kind of data set: In vitro antagonistic activity screening (FLIPR fluorescence, Leuprolide acetate stimulation). It counts as cell-based. Particulars: HEK293 cells stably expressing human GnRHR. The method, then: Cell: HEK293 cells stably expressing human GnRHR (WuXi AppTec (Shanghai) Co., Ltd.) Equipment: 384-well plate, Greiner; Vi-cell XR Cell Viability Analyzer, Beckman Coulter; incubator, Thermo.
Method: HEK293 cells stably expressing human GnRHR were seeded into a 384-well plate at a density of 20,000 cells/well. Fluo-4 DirectTM No-wash Loading Buffer (Invitrogen) was added to each well the next day, and then the plate was put back into an incubator, incubated at 37 °C for 50 min, and then incubated at room temperature for 10 min. […] Fluorescence was measured using a FLIPR Tetra high-throughput real-time fluorescence assay and analysis system. Then 10 µL of Leuprolide acetate was added, and fluorescence was measured. The IC50 and IC90 of the compound were calculated using Prism. Table 12. The in vitro antagonistic activity of the compound of formula I against human GnRHR

In data set [6] the target is T2, human hERG potassium channel (Homo sapiens, UniProt Q12809).
T2 construct: host or cells: CHO
The data set is described as follows: hERG test (QPatch automated patch clamp, CHO cells). The data set is classed as cell-based. Particulars: CHO cells stably expressing human hERG potassium channel. The method, then: Cell: CHO cells stably expressing a human hERG potassium channel (WuXi AppTec (Shanghai) Co., Ltd.)
Reagents: physiological solution (PH = 7.4): 140 mM NaCl, 4 mM KCl, 2 mM CaCl2, 1 mM MgCl2, 5 mM glucose, 10 mM HEPES, osmolarity: about 298 mOsm; external solution (PH = 7.4): 80 mM NaCl, 4 mM KCl, 2 mM CaCl2, 1 mM MgCl2, 5 mM glucose, 60 mM NMDG, 10 mM HEPES, osmolarity: about 289 mOsm; and internal solution (PH = 7.4): 10 mM NaCl, 10 mM KCl, 110 mM KF, 10 mM HEPES, EGTA: […], osmolarity: about 280 mOsm.
Equipment: QPatch high-throughput automated patch clamp system, Sophion.
Method: CHO cells stably expressing a human hERG potassium channel were digested with TrypLE and resuspended in the physiological solution for later use. The single-cell high-impedance sealing and whole-cell mode formation processes were automatically completed by Qpatch. The cells were clamped at a voltage of -80 mV, then a voltage of -50 mV was applied for 80 ms to subtract (current) leakage, and a voltage of +20 mV was applied for 4800 ms to open the hERG channel. The voltage was then reduced to -50 mV and maintained for 5000 ms. This process was used for data collection and analysis. Finally, the voltage was returned to the clamping voltage (-80 mV, 1000 ms). This process was repeated every 20,000 ms. […]

Setting [7] is: intragastric administration group.

T2 sequence (Q12809 whole entry): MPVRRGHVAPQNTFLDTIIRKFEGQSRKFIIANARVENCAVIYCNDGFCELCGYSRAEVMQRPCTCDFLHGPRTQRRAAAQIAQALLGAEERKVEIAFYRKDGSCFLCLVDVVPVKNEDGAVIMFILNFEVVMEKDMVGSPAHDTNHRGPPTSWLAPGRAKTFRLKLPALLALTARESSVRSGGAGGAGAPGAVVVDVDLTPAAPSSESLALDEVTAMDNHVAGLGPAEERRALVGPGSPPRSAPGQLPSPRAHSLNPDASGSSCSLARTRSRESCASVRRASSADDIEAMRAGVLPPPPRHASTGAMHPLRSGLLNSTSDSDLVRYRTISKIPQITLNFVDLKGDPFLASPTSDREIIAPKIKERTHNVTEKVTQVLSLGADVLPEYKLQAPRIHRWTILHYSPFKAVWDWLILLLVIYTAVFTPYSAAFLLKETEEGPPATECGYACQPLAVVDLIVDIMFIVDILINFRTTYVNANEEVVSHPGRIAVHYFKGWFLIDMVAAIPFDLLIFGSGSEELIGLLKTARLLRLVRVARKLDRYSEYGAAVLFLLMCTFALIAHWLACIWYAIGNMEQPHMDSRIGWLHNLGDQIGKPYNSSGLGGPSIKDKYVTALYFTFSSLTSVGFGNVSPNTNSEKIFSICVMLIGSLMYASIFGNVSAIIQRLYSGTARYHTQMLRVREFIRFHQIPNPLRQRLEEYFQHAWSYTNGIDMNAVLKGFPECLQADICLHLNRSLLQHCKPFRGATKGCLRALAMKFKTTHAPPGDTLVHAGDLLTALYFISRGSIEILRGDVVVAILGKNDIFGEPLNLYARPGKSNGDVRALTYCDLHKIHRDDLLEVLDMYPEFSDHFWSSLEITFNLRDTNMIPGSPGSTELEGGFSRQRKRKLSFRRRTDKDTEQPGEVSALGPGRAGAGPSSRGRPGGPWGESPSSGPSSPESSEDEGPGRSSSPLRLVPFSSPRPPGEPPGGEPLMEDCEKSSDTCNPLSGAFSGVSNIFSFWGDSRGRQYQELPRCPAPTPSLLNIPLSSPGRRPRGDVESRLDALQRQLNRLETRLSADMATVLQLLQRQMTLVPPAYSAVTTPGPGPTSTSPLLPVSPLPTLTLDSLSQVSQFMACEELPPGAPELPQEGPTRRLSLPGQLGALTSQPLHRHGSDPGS

The AUC(0-t) is exposure summed from dosing to a finite time, without extrapolation to infinity. Low values mean low exposure, high ones high exposure. By MRT last is commonly meant a mean duration of stay, worked out from the concentration-time curve. Usually half-life stands for the time needed for the level to fall by half in the phase considered. Read a low half-life as rapid decline. For orientation: Cmax means the maximum level reached in the sampled fluid or tissue. In general, Tmax refers to the time at which the peak concentration occurs. As a reminder, the Kp is the ratio of the level in a tissue or fluid to that in plasma or blood. Broadly, the efflux ratio is the permeability from basolateral to apical divided by that in the opposite direction, in the common usage. By Papp A→B is commonly meant the apparent permeability from the apical to the basolateral side of a cell layer. As a reminder, the Papp B→A is the apparent permeability from the basolateral to the apical side of a cell layer. The term IC50 denotes the concentration that gives 50% inhibition. The term IC90 denotes the point of the concentration-response curve where the effect stands at 90%. The compound `CCNC(=O)Nc1ccc(-c2sc3c(c2CN(C)C)c(=O)n(-c2ccc(OC)nn2)c(=O)n3Cc2c(F)cccc2F)cn1` [Formula I] showed a F in data set [1] (i.g 12 mg/kg) of 19.9%. In addition, in data set [1] (setting [7]), the “AUClast relative to Relugolix” value came out at 2.45 times and the “Cmax relative to Relugolix” value is 3.63 times. Further, in data set [1] (intravenous, i.v 1 mg/kg), the AUC(0-t) was 150 ± 12 ng·h/mL, the C0 was found to be 68.8 ± 21.7 ng/mL, the MRT last was determined as 5.41 ± 0.47 h and the half-life was 6.39 ± 1.08 h. Further, in data set [1] (oral, i.g 12 mg/kg), the AUC(0-t) was determined as 357 ± 85 ng·h/mL, the Cmax worked out at 78.5 ± 36.4 ng/mL, the MRT last worked out at 6.13 ± 1.1 h and the Tmax stood at 0.38 ± 0.14 h. Besides, in data set [1] (oral, i.g 12 mg/kg), the half-life is 4.31 ± 1.81 h. For the same compound, in data set [2] (1 h), the Pituitary is on record as 2250±474, the Plasma turned out to be 39.5±14.0, the “concentration in the pituitary relative to Relugolix” value is 2.38 times and the Kp at 1 h was 56.9. Besides, in data set [2] (4 h), the Pituitary is 1841±636, the Plasma turned out to be 22.8±2.5, the “concentration in the pituitary relative to Relugolix” value turned out to be 1.48 times and the Kp at 4 h was 80.8. In addition, in data set [2] (12 h), the Pituitary is given as 1254±494, the Plasma is 9.70±3.10, the “concentration in the pituitary relative to Relugolix” value worked out at 2.46 times and the Kp at 12 h turned out to be 129. The efflux ratio at 120 min in data set [3] (Caco-2) worked out at 294. In data set [3] (Caco-2, 120 min incubation, A to B), this compound yielded a Papp A→B at 120 min of 0.0142 ×10⁻⁶ cm/s. In data set [3] (Caco-2, 120 min incubation, B to A), this compound yielded a Papp B→A at 120 min of 4.19 ×10⁻⁶ cm/s. In data set [4], this compound had an IC50 of 0.64 nM and an IC90 of 2.67 nM. In addition, in data set [5] (read-out: Functional IC50), the IC50 is 1.01 nM. Further, the IC90 in data set [5] (read-out: Functional IC90) came out at 7.55 nM. Also, in data set [6], the IC50 stood at 25800 nM.
As for `CONC(=O)Nc1ccc(-c2sc3c(c2CN(C)C)c(=O)n(-c2ccc(OC)nn2)c(=O)n3Cc2c(F)cccc2F)cc1` [Relugolix, reference compound], in data set [1] (i.g 12 mg/kg), the T1/2 is 3.88 ± 0.57 h and the F is reported as 5.74%. In data set [1] (intravenous, i.v 1 mg/kg), this compound came in with an AUC(0-t) of 212 ± 61 ng·h/mL, a C0 of 339 ± 36 ng/mL and a mean residence time MRT last of 2.01 ± 0.92 h. Moreover, in data set [1] (oral, i.g 12 mg/kg), the AUC(0-t) turned out to be 146 ± 37 ng·h/mL, the Cmax was 21.6 ± 8.3 ng/mL, the MRT last came out at 5.68 ± 0.17 h and the Tmax came out at 0.33 ± 0.14 h. Besides, in data set [2] (1 h), the Kp at 1 h came to 42.4. The same compound returned a Kp at 4 h in data set [2] (4 h) of 76.3. Also, the Kp at 12 h in data set [2] (12 h) is 161.
